Reference: the CheMixHub viscosity set

Experiment: xn = mol fraction of the nth substance listed

c1ccccc1 + Cc1ccccc1
Settings | viscosity [mPa·s]
293.15 K, 100 kPa, x2 = 0.25 | 0.631
293.15 K, 101 kPa, x1 = 0.28 | 0.584
293.15 K, 101 kPa, x1 = 0.54 | 0.597
293.15 K, 101 kPa, x1 = 0.78 | 0.607
293.15 K, 101.33 kPa, x1 = 0.1688 | 0.575
293.15 K, 101.33 kPa, x1 = 0.4383 | 0.592
293.15 K, 101.33 kPa, x1 = 0.5149 | 0.599
293.15 K, 101.33 kPa, x1 = 0.6583 | 0.606
293.15 K, 101.33 kPa, x1 = 0.7819 | 0.617
294.15 K, 100 kPa, x2 = 0.75 | 0.621
294.65 K, 101.33 kPa, x2 = 0.83 | 0.6216
294.75 K, 101.33 kPa, x2 = 0.202 | 0.6571
294.95 K, 101.33 kPa, x2 = 0.62 | 0.6245
295.55 K, 101.33 kPa, x2 = 0.508 | 0.6234
295.65 K, 101.33 kPa, x2 = 0.107 | 0.6473
295.85 K, 101.33 kPa, x2 = 0.272 | 0.6379
296.05 K, 101.33 kPa, x2 = 0.386 | 0.6282
297.35 K, 101.33 kPa, x2 = 0.719 | 0.6066
298.15 K, 101 kPa, x1 = 0.1 | 0.5546
298.15 K, 101 kPa, x1 = 0.1153 | 0.556
298.15 K, 101 kPa, x1 = 0.1272 | 0.555
298.15 K, 101 kPa, x1 = 0.2 | 0.5566
298.15 K, 101 kPa, x1 = 0.2022 | 0.5584
298.15 K, 101 kPa, x1 = 0.28 | 0.556
298.15 K, 101 kPa, x1 = 0.2965 | 0.5613
298.15 K, 101 kPa, x1 = 0.3 | 0.5595
298.15 K, 101 kPa, x1 = 0.3423 | 0.558
298.15 K, 101 kPa, x1 = 0.4 | 0.5632
298.15 K, 101 kPa, x1 = 0.4076 | 0.5651
298.15 K, 101 kPa, x1 = 0.5 | 0.5678
298.15 K, 101 kPa, x1 = 0.54 | 0.566
298.15 K, 101 kPa, x1 = 0.5405 | 0.5703
298.15 K, 101 kPa, x1 = 0.6 | 0.5732
298.15 K, 101 kPa, x1 = 0.7 | 0.5794
298.15 K, 101 kPa, x1 = 0.7024 | 0.579
298.15 K, 101 kPa, x1 = 0.7237 | 0.5802
298.15 K, 101 kPa, x1 = 0.78 | 0.574
298.15 K, 101 kPa, x1 = 0.8 | 0.5864
298.15 K, 101 kPa, x1 = 0.8593 | 0.5888
298.15 K, 101 kPa, x1 = 0.9 | 0.594
298.15 K, 101 kPa, x1 = 0.9275 | 0.594
298.15 K, 101 kPa, x1 = 0.9637 | 0.5968
298.15 K, 101.33 kPa, x1 = 0.0655 | 0.5543
298.15 K, 101.33 kPa, x1 = 0.0991 | 0.5554
298.15 K, 101.33 kPa, x1 = 0.2566 | 0.5591
298.15 K, 101.33 kPa, x1 = 0.3969 | 0.5652
298.15 K, 101.33 kPa, x1 = 0.5481 | 0.572
298.15 K, 101.33 kPa, x1 = 0.6618 | 0.5783
298.15 K, 101.33 kPa, x1 = 0.8029 | 0.5874
298.15 K, 101.33 kPa, x1 = 0.9087 | 0.5951
303.15 K, 101 kPa, x1 = 0.28 | 0.525
303.15 K, 101 kPa, x1 = 0.54 | 0.531
303.15 K, 101 kPa, x1 = 0.78 | 0.539
303.15 K, 101.3 kPa, x1 = 0.0529 | 0.5206
303.15 K, 101.3 kPa, x1 = 0.1185 | 0.522
303.15 K, 101.3 kPa, x1 = 0.2615 | 0.5257
303.15 K, 101.3 kPa, x1 = 0.3482 | 0.5277
303.15 K, 101.3 kPa, x1 = 0.4486 | 0.5312
303.15 K, 101.3 kPa, x1 = 0.5963 | 0.5372
303.15 K, 101.3 kPa, x1 = 0.7138 | 0.5426
303.15 K, 101.3 kPa, x1 = 0.8413 | 0.5482
303.15 K, 101.3 kPa, x1 = 0.9558 | 0.5538
303.15 K, 101.33 kPa, x1 = 0.1688 | 0.509
303.15 K, 101.33 kPa, x1 = 0.4383 | 0.523
303.15 K, 101.33 kPa, x1 = 0.5149 | 0.526
303.15 K, 101.33 kPa, x1 = 0.6583 | 0.529
303.15 K, 101.33 kPa, x1 = 0.7819 | 0.54
303.15 K, 101.33 kPa, x2 = 0.1 | 0.587
303.15 K, 101.33 kPa, x2 = 0.2 | 0.576
303.15 K, 101.33 kPa, x2 = 0.402 | 0.563
303.15 K, 101.33 kPa, x2 = 0.6 | 0.551
303.15 K, 101.33 kPa, x2 = 0.8 | 0.539
303.15 K, 101.33 kPa, x2 = 0.899 | 0.53
305.15 K, 101.33 kPa, x2 = 0.83 | 0.5517
305.35 K, 101.33 kPa, x2 = 0.508 | 0.5535
305.35 K, 101.33 kPa, x2 = 0.719 | 0.554
305.55 K, 101.33 kPa, x2 = 0.107 | 0.5782
305.55 K, 101.33 kPa, x2 = 0.62 | 0.5525
305.65 K, 101.33 kPa, x2 = 0.202 | 0.57
305.75 K, 101.33 kPa, x2 = 0.386 | 0.5579
308.15 K, 101 kPa, x1 = 0.54 | 0.502
308.15 K, 101 kPa, x1 = 0.78 | 0.506
308.15 K, 101.33 kPa, x2 = 0.1 | 0.564
308.15 K, 101.33 kPa, x2 = 0.2 | 0.556
308.15 K, 101.33 kPa, x2 = 0.402 | 0.541
308.15 K, 101.33 kPa, x2 = 0.6 | 0.532
308.15 K, 101.33 kPa, x2 = 0.8 | 0.518
308.15 K, 101.33 kPa, x2 = 0.899 | 0.507
312.85 K, 101.33 kPa, x2 = 0.107 | 0.5215
312.95 K, 101.33 kPa, x2 = 0.202 | 0.5201
312.95 K, 101.33 kPa, x2 = 0.272 | 0.5187
313.05 K, 101.33 kPa, x2 = 0.719 | 0.5077
313.15 K, 101 kPa, x1 = 0.28 | 0.472
313.15 K, 101 kPa, x1 = 0.54 | 0.476
313.15 K, 101 kPa, x1 = 0.78 | 0.48
313.15 K, 101.33 kPa, x1 = 0.1688 | 0.456
313.15 K, 101.33 kPa, x1 = 0.4383 | 0.463
313.15 K, 101.33 kPa, x1 = 0.6583 | 0.471
313.15 K, 101.33 kPa, x1 = 0.7819 | 0.479
313.15 K, 101.33 kPa, x2 = 0.1 | 0.55
313.15 K, 101.33 kPa, x2 = 0.2 | 0.529
313.15 K, 101.33 kPa, x2 = 0.402 | 0.517
313.15 K, 101.33 kPa, x2 = 0.6 | 0.505
313.15 K, 101.33 kPa, x2 = 0.8 | 0.491
313.15 K, 101.33 kPa, x2 = 0.899 | 0.483
313.25 K, 101.33 kPa, x2 = 0.386 | 0.51
313.35 K, 101.33 kPa, x2 = 0.508 | 0.5064
313.45 K, 101.33 kPa, x2 = 0.62 | 0.5057
313.45 K, 101.33 kPa, x2 = 0.83 | 0.5068
318.15 K, 101.33 kPa, x2 = 0.1 | 0.531
318.15 K, 101.33 kPa, x2 = 0.2 | 0.517
318.15 K, 101.33 kPa, x2 = 0.402 | 0.5
318.15 K, 101.33 kPa, x2 = 0.6 | 0.484
318.15 K, 101.33 kPa, x2 = 0.8 | 0.471
318.15 K, 101.33 kPa, x2 = 0.899 | 0.464
322.55 K, 101.33 kPa, x2 = 0.719 | 0.464
322.85 K, 101.33 kPa, x2 = 0.83 | 0.4607
322.95 K, 101.33 kPa, x2 = 0.202 | 0.4648
323.05 K, 101.33 kPa, x2 = 0.62 | 0.4581
323.15 K, 100 kPa, x2 = 0.25 | 0.431
323.15 K, 100 kPa, x2 = 0.5 | 0.427
323.15 K, 100 kPa, x2 = 0.75 | 0.424
323.15 K, 101.33 kPa, x1 = 0.1688 | 0.411
323.15 K, 101.33 kPa, x1 = 0.4383 | 0.416
323.15 K, 101.33 kPa, x1 = 0.5149 | 0.42
323.15 K, 101.33 kPa, x1 = 0.6583 | 0.423
323.15 K, 101.33 kPa, x1 = 0.7819 | 0.424
